Results on one compound are retold here after patent US20070122471A1, “Method of improving suitability for granulation” (Takeda Pharmaceutical Company Limited, priority 2003, published 2007).

The structures appear in SMILES notation.

This data set in a line: Wettability to binder: contact angle of binder liquid on molded product. The data set is classed as physicochemical. To be noted: for Contact angle with respect to molded product: immediately after dropping about 10 μL. From the text: The bulk molded product of Compound X used in Example 1, and Compound X, lactose and crystalline cellulose in Table 1 (this mixture being referred to as a granulation component) were examined on the effect of the surfactant on the wettability to a binder (10% PVP) solution for the molded product. As a binding liquid, a solution of a binder alone (A), a solution of binder+a 1% polysorbate 80 (B), and a solution of a binder+1% sodium lauryl sulfate (C) were used, and contact angle thereof were measured by using the following method.
About 300 mg of the bulk or the granulation component was weighed, and compression molded using a plain mortar and pestle of 10.0 mmφ by an autograph (manufactured by Shimadzu Co.) under the conditions of a tableting pressure of 10 kN/pestle and a tableting speed of 10 mm/min, thus to obtain a bulk molded product or a molded product of the granulation components. Onto the flat portion of each of the molded products, about 10 μL of the above-described binder liquid was dropped using a Microsyringe (manufactured by ITO SEISAKUSHO CO., LTD.), and the solid and liquid interface immediately after dropping was photographed by a digital microscope (Keyence). After photographing, using an accompanying software, the angle between the liquid surface and the solid surface was measured and referred to as an […].

For `COc1cccc([C@H]2O[C@H](CC(=O)Nc3cccc(CCC(=O)O)c3)C(=O)N(CC(C)(C)CO)c3ccc(Cl)cc32)c1OC` [Compound X, 3-[3-[[(3R,5S)-7-chloro-5-(2,3-dimethoxyphenyl)-1-(3-hydroxy-2,2-dimethylpropyl)-2-oxo-1,2,3,5-tetrahydro-4,1-benzoxazepine-3-yl]acetyl]aminophenyl]propionic acid], the “Contact angle with respect to molded product” value runs as follows: (binder liquid (A): binder (10% PVP) alone) 56 °; (binder liquid (B): binder (10% PVP) + 1% polysorbate 80) 33 °; (binder liquid (C): binder (10% PVP) + 1% sodium lauryl sulfate) 28 °. Further, the “Wettability to the binder liquid” value (surfactant incorporated into the binder liquid) is “remarkably improved”.
